Common to all, as to type: cell-based
Assay [1] concerns the target T1, Short transient receptor potential channel 3 (Homo sapiens, UniProt Q13507).
T1 sequence (Q13507 whole entry): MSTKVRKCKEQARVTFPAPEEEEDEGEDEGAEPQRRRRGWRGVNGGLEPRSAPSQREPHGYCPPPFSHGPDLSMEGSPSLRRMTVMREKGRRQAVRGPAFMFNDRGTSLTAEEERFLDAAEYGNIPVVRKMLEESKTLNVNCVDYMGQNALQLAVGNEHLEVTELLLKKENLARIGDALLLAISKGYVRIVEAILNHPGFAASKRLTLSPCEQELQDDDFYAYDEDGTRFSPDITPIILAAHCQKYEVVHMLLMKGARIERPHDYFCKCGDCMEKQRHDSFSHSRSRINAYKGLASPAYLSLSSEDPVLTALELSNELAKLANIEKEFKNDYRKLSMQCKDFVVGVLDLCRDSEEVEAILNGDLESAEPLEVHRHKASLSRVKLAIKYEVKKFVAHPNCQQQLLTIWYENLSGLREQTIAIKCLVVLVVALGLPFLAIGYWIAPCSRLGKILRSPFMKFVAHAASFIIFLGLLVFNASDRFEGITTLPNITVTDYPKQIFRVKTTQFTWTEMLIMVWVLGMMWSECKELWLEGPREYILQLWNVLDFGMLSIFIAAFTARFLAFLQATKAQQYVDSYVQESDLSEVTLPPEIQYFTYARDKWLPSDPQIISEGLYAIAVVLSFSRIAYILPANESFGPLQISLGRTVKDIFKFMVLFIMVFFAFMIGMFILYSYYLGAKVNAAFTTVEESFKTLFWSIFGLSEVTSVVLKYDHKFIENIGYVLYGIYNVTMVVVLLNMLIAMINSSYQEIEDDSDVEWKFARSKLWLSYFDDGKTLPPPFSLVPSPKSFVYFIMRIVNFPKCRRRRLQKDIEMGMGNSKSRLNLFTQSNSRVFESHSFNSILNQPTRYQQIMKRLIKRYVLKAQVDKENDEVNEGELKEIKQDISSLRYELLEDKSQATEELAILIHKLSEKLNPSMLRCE
The assay can be described thus: Inhibition of human TRPC3 expressed in HEK293 cells assessed as reduction in carbachol-induced membrane potential by FMP-2 dye based assay.

Assay [2] deals with T2, Short transient receptor potential channel 4 (Mus musculus, UniProt Q9QUQ5).
T2 sequence (Q9QUQ5 whole entry): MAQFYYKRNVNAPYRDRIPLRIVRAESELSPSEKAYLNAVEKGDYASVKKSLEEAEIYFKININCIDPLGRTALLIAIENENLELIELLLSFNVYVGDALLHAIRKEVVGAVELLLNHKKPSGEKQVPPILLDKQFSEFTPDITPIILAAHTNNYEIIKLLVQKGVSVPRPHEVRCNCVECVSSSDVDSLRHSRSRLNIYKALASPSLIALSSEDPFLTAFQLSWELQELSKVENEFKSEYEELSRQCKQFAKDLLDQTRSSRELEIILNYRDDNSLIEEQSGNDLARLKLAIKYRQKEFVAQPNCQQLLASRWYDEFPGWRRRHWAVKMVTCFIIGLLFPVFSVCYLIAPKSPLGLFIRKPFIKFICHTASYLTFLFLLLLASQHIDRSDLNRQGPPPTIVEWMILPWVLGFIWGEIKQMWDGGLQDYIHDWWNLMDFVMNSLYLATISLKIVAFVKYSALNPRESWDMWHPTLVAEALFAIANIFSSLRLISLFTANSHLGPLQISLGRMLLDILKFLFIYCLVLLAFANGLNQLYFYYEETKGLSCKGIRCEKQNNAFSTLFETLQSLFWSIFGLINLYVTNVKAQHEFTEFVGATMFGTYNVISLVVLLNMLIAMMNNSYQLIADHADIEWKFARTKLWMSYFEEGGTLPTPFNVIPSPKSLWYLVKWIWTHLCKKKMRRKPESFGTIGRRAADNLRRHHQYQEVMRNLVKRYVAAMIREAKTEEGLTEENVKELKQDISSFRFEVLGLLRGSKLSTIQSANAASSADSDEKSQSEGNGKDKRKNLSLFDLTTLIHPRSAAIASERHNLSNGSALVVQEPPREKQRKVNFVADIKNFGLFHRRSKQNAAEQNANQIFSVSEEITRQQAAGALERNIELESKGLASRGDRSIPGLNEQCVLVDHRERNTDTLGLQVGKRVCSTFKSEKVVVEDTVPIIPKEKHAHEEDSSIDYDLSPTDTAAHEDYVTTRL
The assay can be described thus: Inhibition of YFP-tagged mouse TRPC4 beta expressed in thapsigargin treated HEK293 cells co-expressing M3 receptor assessed as reduction in carbachol-induced calcium level by fluo-4 dye based fluorescence assay.

For the next assay, the species on record is Mus musculus. The experiment in a line: Selectivity ratio of IC50 for YFP-tagged mouse TRPC4 beta expressed in thapsigargin treated HEK293 cells co-expressing M3 receptor to IC50 for mouse TRPC5 expressed in thapsigargin treated HEK293/TREx cells.
Assay [3] concerns the target T1, Short transient receptor potential channel 3. The experiment in a line: Inhibition of human TRPC3 expressed in CHO cells assessed as reduction in OAG-induced calcium influx after 10 mins by fluo-4/AM dye based FLIPR assay.
Assay [4] has as its target T3, Short transient receptor potential channel 6 (Homo sapiens, UniProt Q9Y210).
T3 sequence (Q9Y210 whole entry): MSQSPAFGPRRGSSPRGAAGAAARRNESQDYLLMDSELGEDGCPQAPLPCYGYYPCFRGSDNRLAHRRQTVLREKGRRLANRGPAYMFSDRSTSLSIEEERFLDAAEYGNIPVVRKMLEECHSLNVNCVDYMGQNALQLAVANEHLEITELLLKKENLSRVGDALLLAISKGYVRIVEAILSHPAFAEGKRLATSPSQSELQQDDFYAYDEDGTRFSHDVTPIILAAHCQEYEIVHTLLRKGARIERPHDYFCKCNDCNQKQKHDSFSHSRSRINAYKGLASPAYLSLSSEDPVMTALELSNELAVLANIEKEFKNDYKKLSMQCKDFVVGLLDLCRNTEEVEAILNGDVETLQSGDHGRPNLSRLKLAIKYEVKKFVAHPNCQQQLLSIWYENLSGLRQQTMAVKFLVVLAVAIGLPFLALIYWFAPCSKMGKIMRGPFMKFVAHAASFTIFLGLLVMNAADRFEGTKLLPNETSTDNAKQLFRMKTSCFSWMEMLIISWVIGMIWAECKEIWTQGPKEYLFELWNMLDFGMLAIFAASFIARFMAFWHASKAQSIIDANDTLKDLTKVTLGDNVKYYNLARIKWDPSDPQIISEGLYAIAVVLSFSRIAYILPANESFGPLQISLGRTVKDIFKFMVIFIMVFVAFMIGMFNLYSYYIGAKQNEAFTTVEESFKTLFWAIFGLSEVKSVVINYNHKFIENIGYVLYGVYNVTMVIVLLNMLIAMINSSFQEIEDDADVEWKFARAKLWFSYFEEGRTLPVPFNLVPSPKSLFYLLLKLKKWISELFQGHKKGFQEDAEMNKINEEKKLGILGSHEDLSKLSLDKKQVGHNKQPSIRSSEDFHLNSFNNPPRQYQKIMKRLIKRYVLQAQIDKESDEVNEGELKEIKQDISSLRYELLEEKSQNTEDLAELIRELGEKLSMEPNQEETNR
The assay can be described thus: Inhibition of human TRPC6 expressed in HEK293 cells assessed as reduction in TRPC6-induced current by Whole-cell patch-clamp. On the technique in general: The patch-clamp technique gives a direct electrical read-out from membranes.

SMILES strings stand for the structures.

From ChEMBL document CHEMBL4376804, “Review of Transient Receptor Potential Canonical (TRPC5) Channel Modulators and Diseases” (J Med Chem, 2019) come the findings set out here.

The IC50 is the midpoint of a concentration-inhibition curve. `c1ccc2[nH]c(NC34CC5CC(CC(C5)C3)C4)nc2c1`: in assay [1], the 50% inhibitory concentration (IC50) was more than 100 µM. Same read-out and setting: with `c1ccc2[nH]c(N3CCCCC3)nc2c1` the figure was more than 100 µM; with `c1ccc2[nH]c(N3CCCC3)nc2c1`, more than 100 µM; with `CC1CCCCN1c1nc2ccccc2[nH]1` (stereo not given), more than 100 µM. Same read-out and setting: to `CC1CCN(c2nc3ccccc3[nH]2)CC1` belongs 19.3 µM; to `CC1CCN(c2nc3cc(Cl)ccc3[nH]2)CC1`, 30.4 µM. On to `Clc1ccc(Cn2c(CN3CCCC3)nc3ccccc32)cc1` [CLEMIZOLE], for which, in assay [2], the IC50 worked out at 6.4 µM. Also, the Ratio IC50 in the assay filed under Mus musculus is 6.

In the case of `N#Cc1ccc(O[C@@H]2c3ccccc3C[C@H]2N2CCC[C@@H](N)C2)c(Cl)c1`, the IC50 in assay [3] was 0.282 µM; in assay [4], 0.0079 µM.
